# pKd: −log10 of the molar value.
# Experiments:
# [1] = biological target: Tyrosine-protein kinase ITK/TSK (Homo sapiens, UniProt Q08881); assay: Binding affinity to recombinant human full-length N-terminal GST-tagged ITK expressed in baculovirus expression system using srctide as substrate incubated for 1 hr by TR-FRET assay
# [2] = biological target: LIM domain kinase 1 (Homo sapiens, UniProt P53667); assay: Binding affinity to truncated human N-terminal GST-tagged LIMK1 (285 to 638 residues) expressed in baculovirus expression system using cofilin2 as substrate incubated for 1 hr by TR-FRET assay
# [3] = biological target: Testis-specific serine/threonine-protein kinase 3 (Homo sapiens, UniProt Q96PN8); assay: Binding affinity to recombinant full-length N-terminal His-FLAG-GST-tagged TSSK3 (unknown origin) expressed in baculovirus infected Sf9 insect cells incubated for 1 hr by TR-FRET assay
# [4] = biological target: Tyrosine-protein kinase Yes (Homo sapiens, UniProt P07947); assay: Binding affinity to recombinant full-length N-terminal His-FLAG-GST-tagged YES1 (unknown origin) expressed in baculovirus infected Sf9 insect cells incubated for 1 hr by TR-FRET assay
# [5] = biological target: Death-associated protein kinase 1 (Homo sapiens, UniProt P53355); assay: Binding affinity to recombinant full-length N-terminal His-FLAG-GST-tagged DAPK1 (unknown origin) (1 to 289 residues) expressed in baculovirus infected Sf9 insect cells incubated for 1 hr by TR-FRET assay
# [6] = biological target: Citron Rho-interacting kinase (Homo sapiens, UniProt O14578); assay: Binding affinity to recombinant full-length N-terminal His-FLAG-GST-tagged CIT (unknown origin) (1 to 449 residues) expressed in baculovirus infected Sf9 insect cells incubated for 1 hr by TR-FRET assay
# [7] = biological target: 5'-AMP-activated protein kinase catalytic subunit alpha-2 (Homo sapiens, UniProt P54646); assay: Binding affinity to recombinant full-length N-terminal His-FLAG-GST-tagged PRKAA2 (unknown origin) (10 to 552 residues) expressed in baculovirus infected Sf9 insect cells incubated for 1 hr by TR-FRET assay
# [8] = biological target: Tyrosine-protein kinase FRK (Homo sapiens, UniProt P42685); assay: Binding affinity to recombinant full-length N-terminal His-FLAG-GST-tagged FRK (unknown origin) (223 to 505 residues) expressed in baculovirus infected Sf9 insect cells incubated for 1 hr […] by TR-FRET assay
# [9] = biological target: Calcium/calmodulin-dependent protein kinase kinase 2 (Homo sapiens, UniProt Q96RR4); assay: Binding affinity to recombinant full-length N-terminal His-FLAG-GST-tagged CAMKK2 (unknown origin) expressed in baculovirus infected Sf9 insect cells incubated for 1 hr in presence of calmodulin by TR-FRET assay
# [10] = biological target: Protein kinase C zeta type (Homo sapiens, UniProt Q05513); assay: Binding affinity to recombinant full-length N-terminal His-FLAG-GST-tagged PRKCZ (unknown origin) expressed in baculovirus infected Sf9 insect cells incubated for 1 hr by TR-FRET assay
# [11] = biological target: Testis-specific serine/threonine-protein kinase 1 (Homo sapiens, UniProt Q9BXA7); assay: Binding affinity to recombinant full-length N-terminal His-FLAG-GST-tagged TSSK1B (unknown origin) expressed in baculovirus infected Sf9 insect cells incubated for 1 hr by TR-FRET assay
# [12] = biological target: AMP-activated protein kinase (AMPK) alpha-1/beta-1/gamma-1 (Homo sapiens, UniProt P54619+Q13131+Q9Y478); assay: Binding affinity to recombinant human full-length GST N-Terminal tagged-AMPK alpha1/N-Terminal GST tagged-AMPK beta1/N-Terminal his-tagged AMPK gamma1 expressed in baculovirus expression system incubated for 1 hr by TR-FRET assay
# [13] = biological target: Serine/threonine-protein kinase pim-1 (Homo sapiens, UniProt P11309); assay: Binding affinity to recombinant human full-length N-terminal his-tagged PIM1 expressed in baculovirus expression system using S6K2 peptide as substrate incubated for 1 hr by TR-FRET assay
# [14] = biological target: Serine/threonine-protein kinase 4 (Homo sapiens, UniProt Q13043); assay: Binding affinity to recombinant full-length N-terminal His-FLAG-GST-tagged STK4 (unknown origin) expressed in baculovirus infected Sf9 insect cells incubated for 1 hr by TR-FRET assay
# [15] = biological target: Insulin receptor (Homo sapiens, UniProt P06213); assay: Binding affinity to recombinant full-length N-terminal His-FLAG-GST-tagged INSR (unknown origin) (1005 to 1310 residues) expressed in baculovirus infected Sf9 insect cells incubated for 1 hr by TR-FRET assay
# [16] = biological target: Protein-tyrosine kinase 2-beta (Homo sapiens, UniProt Q14289); assay: Binding affinity to recombinant full-length N-terminal His-FLAG-tagged PTK2B (unknown origin) expressed in baculovirus infected Sf9 insect cells incubated for 1 hr by TR-FRET assay
# [17] = biological target: Serine/threonine-protein kinase TAO1 (Homo sapiens, UniProt Q7L7X3); assay: Binding affinity to recombinant full-length N-terminal His-FLAG-GST-tagged TAOK1 (unknown origin) (1 to 314 residues) expressed in baculovirus infected Sf9 insect cells incubated for 1 hr by TR-FRET assay
# [18] = biological target: Protein kinase C eta type (Homo sapiens, UniProt P24723); assay: Binding affinity to recombinant full-length N-terminal His-FLAG-GST-tagged PRKCH (unknown origin) expressed in baculovirus infected Sf9 insect cells incubated for 1 hr by TR-FRET assay
# [19] = biological target: Tyrosine-protein kinase Mer (Homo sapiens, UniProt Q12866); assay: Binding affinity to recombinant full-length N-terminal His-FLAG-GST-tagged MERTK (unknown origin) (528 to 999 residues) expressed in baculovirus infected Sf9 insect cells incubated for 1 hr by TR-FRET assay
# [20] = biological target: Maternal embryonic leucine zipper kinase (Homo sapiens, UniProt Q14680); assay: Binding affinity to recombinant full-length N-terminal His-FLAG-GST-tagged MELK (unknown origin) (1 to 493 residues) expressed in baculovirus infected Sf9 insect cells incubated for 1 hr by TR-FRET assay
# [21] = biological target: Serine/threonine-protein kinase PAK 6 (Homo sapiens, UniProt Q9NQU5); assay: Binding affinity to recombinant human full-length N-terminal GST-tagged PAK6 expressed in baculovirus expression system using SGKtide as substrate incubated for 1 hr by TR-FRET assay
# [22] = biological target: Tyrosine-protein kinase Fgr (Homo sapiens, UniProt P09769); assay: Binding affinity to recombinant full-length N-terminal His-FLAG-tagged FGR (unknown origin) expressed in baculovirus infected Sf9 insect cells incubated for 1 hr by TR-FRET assay
# [23] = biological target: Tyrosine-protein kinase CSK (Homo sapiens, UniProt P41240); assay: Binding affinity to recombinant full-length N-terminal His-FLAG-tagged CSK (unknown origin) expressed in baculovirus infected Sf9 insect cells incubated for 1 hr by TR-FRET assay
# [24] = biological target: Tyrosine-protein kinase BTK (Homo sapiens, UniProt Q06187); assay: Binding affinity to recombinant human full-length N-terminal GST-tagged BTK expressed in baculovirus expression system using srctide as substrate incubated for 1 hr by TR-FRET assay
# Testis-specific serine/threonine-protein kinase 1, sequence (Q9BXA7 whole entry): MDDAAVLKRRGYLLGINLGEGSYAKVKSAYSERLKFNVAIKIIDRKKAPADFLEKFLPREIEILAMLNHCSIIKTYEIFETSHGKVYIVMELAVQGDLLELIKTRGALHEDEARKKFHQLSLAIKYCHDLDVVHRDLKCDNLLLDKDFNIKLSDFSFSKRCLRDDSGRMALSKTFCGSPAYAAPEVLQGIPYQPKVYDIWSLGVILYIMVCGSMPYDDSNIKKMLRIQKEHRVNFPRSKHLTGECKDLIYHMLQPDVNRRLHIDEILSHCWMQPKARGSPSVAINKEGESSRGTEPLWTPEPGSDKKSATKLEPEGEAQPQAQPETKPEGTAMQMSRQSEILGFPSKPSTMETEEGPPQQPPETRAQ
# AMP-activated protein kinase (AMPK) alpha-1/beta-1/gamma-1, sequence (P54619 whole entry): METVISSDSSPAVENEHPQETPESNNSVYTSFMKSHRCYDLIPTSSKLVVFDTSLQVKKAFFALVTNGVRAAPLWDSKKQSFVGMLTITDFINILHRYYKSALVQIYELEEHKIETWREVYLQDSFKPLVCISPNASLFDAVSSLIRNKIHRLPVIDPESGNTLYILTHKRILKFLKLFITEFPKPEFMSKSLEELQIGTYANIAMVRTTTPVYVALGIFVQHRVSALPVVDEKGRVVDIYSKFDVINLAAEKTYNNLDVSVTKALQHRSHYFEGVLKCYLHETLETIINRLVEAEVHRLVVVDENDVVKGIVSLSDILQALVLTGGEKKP
# AMP-activated protein kinase (AMPK) alpha-1/beta-1/gamma-1, sequence (Q9Y478 whole entry): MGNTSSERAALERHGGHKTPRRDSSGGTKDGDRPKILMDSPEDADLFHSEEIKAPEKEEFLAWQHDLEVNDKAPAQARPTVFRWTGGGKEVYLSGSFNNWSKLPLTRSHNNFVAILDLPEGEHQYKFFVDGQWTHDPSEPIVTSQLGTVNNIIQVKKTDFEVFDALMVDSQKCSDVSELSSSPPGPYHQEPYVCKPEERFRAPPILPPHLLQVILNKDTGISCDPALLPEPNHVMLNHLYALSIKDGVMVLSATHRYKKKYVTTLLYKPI
# AMP-activated protein kinase (AMPK) alpha-1/beta-1/gamma-1, sequence (Q13131 whole entry): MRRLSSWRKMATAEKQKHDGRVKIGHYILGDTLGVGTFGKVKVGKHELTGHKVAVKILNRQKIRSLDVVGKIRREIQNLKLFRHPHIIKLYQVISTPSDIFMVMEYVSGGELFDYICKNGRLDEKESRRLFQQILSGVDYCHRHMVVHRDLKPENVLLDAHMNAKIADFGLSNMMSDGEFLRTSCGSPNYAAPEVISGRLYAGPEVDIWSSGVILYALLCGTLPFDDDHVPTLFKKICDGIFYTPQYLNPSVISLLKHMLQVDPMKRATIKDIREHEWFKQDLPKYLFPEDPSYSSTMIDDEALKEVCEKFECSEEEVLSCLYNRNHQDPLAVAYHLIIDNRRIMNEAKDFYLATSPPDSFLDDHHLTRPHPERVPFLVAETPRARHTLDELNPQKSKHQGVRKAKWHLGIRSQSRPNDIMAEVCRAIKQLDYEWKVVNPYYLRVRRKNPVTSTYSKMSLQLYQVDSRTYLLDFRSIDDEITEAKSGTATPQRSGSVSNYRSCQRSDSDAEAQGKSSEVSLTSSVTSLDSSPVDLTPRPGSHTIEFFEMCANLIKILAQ
# Tyrosine-protein kinase CSK, sequence (P41240 whole entry): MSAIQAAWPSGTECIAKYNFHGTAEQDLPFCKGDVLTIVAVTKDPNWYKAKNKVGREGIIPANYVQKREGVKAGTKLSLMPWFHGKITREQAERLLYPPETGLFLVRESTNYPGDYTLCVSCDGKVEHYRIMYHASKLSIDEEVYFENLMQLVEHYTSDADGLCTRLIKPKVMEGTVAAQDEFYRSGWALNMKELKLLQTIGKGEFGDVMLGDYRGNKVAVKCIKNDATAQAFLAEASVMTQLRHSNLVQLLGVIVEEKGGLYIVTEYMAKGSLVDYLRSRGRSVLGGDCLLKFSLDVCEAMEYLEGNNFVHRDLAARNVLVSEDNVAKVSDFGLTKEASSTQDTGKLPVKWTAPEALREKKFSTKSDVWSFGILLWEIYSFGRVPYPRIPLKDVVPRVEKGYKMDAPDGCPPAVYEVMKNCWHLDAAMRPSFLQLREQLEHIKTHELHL
# Serine/threonine-protein kinase 4, sequence (Q13043 whole entry, the tested form may be a part): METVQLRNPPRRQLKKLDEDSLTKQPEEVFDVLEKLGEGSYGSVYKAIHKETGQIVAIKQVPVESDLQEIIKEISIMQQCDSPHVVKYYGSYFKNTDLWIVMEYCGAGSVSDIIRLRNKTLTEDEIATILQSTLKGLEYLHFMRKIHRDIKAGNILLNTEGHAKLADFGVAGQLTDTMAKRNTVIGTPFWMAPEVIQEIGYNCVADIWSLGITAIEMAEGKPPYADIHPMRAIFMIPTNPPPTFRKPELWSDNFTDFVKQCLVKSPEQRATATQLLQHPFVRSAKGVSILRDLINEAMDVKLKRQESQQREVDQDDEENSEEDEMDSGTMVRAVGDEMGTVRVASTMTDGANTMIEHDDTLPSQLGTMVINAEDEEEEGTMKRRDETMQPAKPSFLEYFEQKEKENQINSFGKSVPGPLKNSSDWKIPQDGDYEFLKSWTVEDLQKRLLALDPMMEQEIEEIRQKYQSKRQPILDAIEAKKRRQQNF
# Protein kinase C zeta type, sequence (Q05513 whole entry): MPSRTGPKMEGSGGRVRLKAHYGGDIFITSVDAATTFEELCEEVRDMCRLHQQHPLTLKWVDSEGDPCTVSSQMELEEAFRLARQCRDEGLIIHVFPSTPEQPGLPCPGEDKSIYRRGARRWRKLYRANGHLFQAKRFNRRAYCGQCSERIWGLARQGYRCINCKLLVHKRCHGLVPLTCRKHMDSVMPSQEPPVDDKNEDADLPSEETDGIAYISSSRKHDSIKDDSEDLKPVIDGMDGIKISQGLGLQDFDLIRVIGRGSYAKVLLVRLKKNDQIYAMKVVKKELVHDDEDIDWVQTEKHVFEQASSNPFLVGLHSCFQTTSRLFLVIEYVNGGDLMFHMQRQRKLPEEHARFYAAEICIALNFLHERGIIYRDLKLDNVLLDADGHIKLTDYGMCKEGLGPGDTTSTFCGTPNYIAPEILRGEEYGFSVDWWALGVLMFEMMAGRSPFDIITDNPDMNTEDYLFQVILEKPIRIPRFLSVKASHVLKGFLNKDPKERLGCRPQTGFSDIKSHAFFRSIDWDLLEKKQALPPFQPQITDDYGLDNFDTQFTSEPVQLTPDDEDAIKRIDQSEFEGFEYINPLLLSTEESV
# 5'-AMP-activated protein kinase catalytic subunit alpha-2, sequence (P54646 whole entry, the tested form may be a part): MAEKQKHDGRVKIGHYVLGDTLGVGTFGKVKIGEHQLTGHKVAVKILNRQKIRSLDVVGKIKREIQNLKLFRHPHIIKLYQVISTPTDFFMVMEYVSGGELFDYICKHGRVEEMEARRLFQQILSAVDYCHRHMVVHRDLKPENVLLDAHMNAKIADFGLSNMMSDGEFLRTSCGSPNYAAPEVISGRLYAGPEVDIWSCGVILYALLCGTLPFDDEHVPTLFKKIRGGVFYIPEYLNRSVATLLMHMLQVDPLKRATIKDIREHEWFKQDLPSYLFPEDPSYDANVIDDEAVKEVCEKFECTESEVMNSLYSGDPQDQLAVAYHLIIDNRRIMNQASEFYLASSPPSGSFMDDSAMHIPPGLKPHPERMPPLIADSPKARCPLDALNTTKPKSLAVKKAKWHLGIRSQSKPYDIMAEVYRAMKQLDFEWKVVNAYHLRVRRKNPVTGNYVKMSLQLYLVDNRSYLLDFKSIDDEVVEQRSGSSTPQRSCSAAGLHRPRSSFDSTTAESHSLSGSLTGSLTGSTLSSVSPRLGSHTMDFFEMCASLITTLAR
# Insulin receptor, sequence (P06213 28-758 limits assumed): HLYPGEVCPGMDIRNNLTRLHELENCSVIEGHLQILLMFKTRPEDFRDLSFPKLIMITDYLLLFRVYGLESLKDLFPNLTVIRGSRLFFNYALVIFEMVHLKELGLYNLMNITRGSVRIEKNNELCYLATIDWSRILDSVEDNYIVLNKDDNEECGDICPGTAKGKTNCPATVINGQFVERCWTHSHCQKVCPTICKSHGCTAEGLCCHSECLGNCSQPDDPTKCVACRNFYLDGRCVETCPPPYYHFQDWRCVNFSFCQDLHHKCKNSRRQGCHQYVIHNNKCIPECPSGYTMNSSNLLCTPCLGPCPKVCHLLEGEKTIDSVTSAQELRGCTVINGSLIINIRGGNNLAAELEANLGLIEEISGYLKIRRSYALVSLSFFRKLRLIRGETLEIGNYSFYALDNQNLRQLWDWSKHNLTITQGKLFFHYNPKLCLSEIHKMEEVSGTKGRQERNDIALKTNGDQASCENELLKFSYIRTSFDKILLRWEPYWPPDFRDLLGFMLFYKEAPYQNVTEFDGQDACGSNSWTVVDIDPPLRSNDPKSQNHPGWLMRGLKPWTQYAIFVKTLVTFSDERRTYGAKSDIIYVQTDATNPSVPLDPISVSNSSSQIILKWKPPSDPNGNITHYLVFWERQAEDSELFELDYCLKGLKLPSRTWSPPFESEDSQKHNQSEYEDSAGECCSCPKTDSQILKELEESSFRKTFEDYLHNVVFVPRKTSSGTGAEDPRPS
# Insulin receptor, sequence (P06213 763-1382 limits assumed): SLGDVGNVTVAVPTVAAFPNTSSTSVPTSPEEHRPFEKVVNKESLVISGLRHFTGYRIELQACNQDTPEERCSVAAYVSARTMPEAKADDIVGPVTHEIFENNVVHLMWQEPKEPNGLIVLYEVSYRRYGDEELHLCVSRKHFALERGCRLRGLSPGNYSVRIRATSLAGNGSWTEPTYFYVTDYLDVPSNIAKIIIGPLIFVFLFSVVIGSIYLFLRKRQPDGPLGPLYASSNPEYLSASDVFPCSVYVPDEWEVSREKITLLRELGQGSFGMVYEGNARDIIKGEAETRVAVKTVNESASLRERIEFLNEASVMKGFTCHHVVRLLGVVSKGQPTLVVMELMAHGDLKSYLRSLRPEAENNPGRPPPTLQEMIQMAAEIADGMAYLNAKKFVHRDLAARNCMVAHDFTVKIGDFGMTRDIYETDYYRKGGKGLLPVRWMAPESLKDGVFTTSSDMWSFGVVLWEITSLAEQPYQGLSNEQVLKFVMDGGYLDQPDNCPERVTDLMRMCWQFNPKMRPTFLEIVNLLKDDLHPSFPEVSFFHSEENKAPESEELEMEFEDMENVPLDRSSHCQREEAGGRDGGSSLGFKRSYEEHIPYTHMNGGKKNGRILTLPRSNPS
Structure (SMILES),pKd [1],pKd [2],pKd [3],pKd [4],pKd [5],pKd [6],pKd [7],pKd [8],pKd [9],pKd [10],pKd [11],pKd [12],pKd [13],pKd [14],pKd [15],pKd [16],pKd [17],pKd [18],pKd [19],pKd [20],other results
CO[C@@H]1[C@H](NCCOCCOCCOCCNC(=O)CCC2=[N+]3C(=Cc4c(C)cc(C)n4[B-]3(F)F)C=C2)C[C@H]2O[C@]1(C)n1c3ccccc3c3c4c(c5c6ccccc6n2c5c31)C(=O)NC4,6.42,8.22,6.42,6.22,7.16,6.13,7.35,6.48,8.70,5.90,7.74,7.89,6.68,8.15,5.73,7.23,7.60,7.21,6.97,7.30,pKd [21]: 7.66; pKd [22]: 7.00; pKd [23]: 6.06; pKd [24]: 6.43
CO[C@@H]1[C@H](N(C)CCOCCOCCOCCNC(=O)CCC2=[N+]3C(=Cc4c(C)cc(C)n4[B-]3(F)F)C=C2)C[C@H]2O[C@]1(C)n1c3ccccc3c3c4c(c5c6ccccc6n2c5c31)C(=O)NC4,6.12,7.49,6.48,< 5.70,7.23,6.15,7.34,6.43,8.22,5.87,7.72,7.82,6.55,8.40,5.77,7.14,7.82,7.43,6.97,7.39,pKd [21]: 7.60; pKd [22]: 6.92; pKd [23]: 5.99; pKd [24]: 6.36
